“Also recorded” adds a separate entry of the source. Ends that are not written are not given here.
Tests used:
[1] = tested on: SARS-CoV-2 infection of Vero-E6/TMPRSS2 cells; assay: microbe, parasite or virus in culture; format: cell-based
[2] = tested on: D-FP12_biotin (SARS-CoV-2 spike fusion peptide synthesised as a D-peptide); format: binding
FP = assay: Preliminary screen of FP versus a pan-coronaviral phage display library; set-up: species or system SARS-CoV-2; conditions: lack of binding to homologous regions of other coronaviruses placed the finding in doubt
Protocol: Proteomic phage display of peptide regions of proteins is also possible for viral as well as host proteins, and a preliminary screen of FP versus a pan-coronaviral phage display library of regions of coronaviral proteins was carried out following the methods previously outlined, which only identified a single peptide, despite a large amount of sequencing data obtained. This 39mer […] peptide was derived from the nsp3 (protease-encoding) protein of coronavirus 229E comprising the last four residues of the loop between Y2 and Y3 regions and the first 35 residues of the Y3 region. Y3 plays a role in double-membrane vesicle formation, but the lack of binding to homologous regions of other coronaviruses in the library placed the finding in doubt.

[3] = tested on: anti-Borrelia burgdorferi immune sera; conditions: occurrences in the anti-Borrelia burgdorferi immune sera NEB PhD7 screening dataset; cited from earlier work
Excerpt: Table 2 Ten enriched PhD7-mer L-peptides tested in antiviral assays as D-peptides. | column: Occurrence in an Unrelated Screen

Compound | Read Count [2] | further results
CCC(CC)COC(=O)[C@H](C)N[P@](=O)(OC[C@H]1O[C@@](C#N)(c2ccc3c(N)ncnn23)[C@H](O)[C@@H]1O)Oc1ccccc1 [Remdesivir, reference compound] |  | inhibition of infection (in words) [1]: strongly inhibited; inhibition at 5 µM ([1]; Severe acute respiratory syndrome coronavirus 2, VeroE6/TMPRSS2, read-out: inhibition of infection): 95%
ETSTMYP | 3552 | effect on SARS-CoV-2 infection (number of infected cells compared to vehicle controls) [1]: exception
HDTTLIT | 169,773 | 
HFARHLA | 7063 | 
LEVYYET | 3570 | 
LSTLSVDFNGVLHKAYIDVLRNSFGKDLNANMSLAECKR |  | peptide identified as binding FP in the pan-coronaviral library (FP): identified
LTSLPRN | 4284 | 
NTWPYKP | 264,257 | Occurrence in an Unrelated Screen [3]: 1
RDHYMMF | 7135 | 
RRRRRRRRGPDRNFRLSEHRQALA-NH2 [OTUD1-derived peptide] |  | inhibition of SARS-CoV-2 infection of Vero-E6/TMPRSS2 cells (in words) [1]: no evidence for any marked impact; also recorded: failed to inhibit viral infection
SLTGTRF | 11,170 | 
WSLGYTG | 6,280,489 | Occurrence in an Unrelated Screen [3]: 4
WSRGYTG | 3676 | 

From paper PMC12844208, “Screening for Peptides to Bind and Functionally Inhibit SARS-CoV-2 Fusion Peptide Using Mirrored Combinatorial Phage Display and Human Proteomic Phage Display” (Molecules, 2026)
